In patent publication US20260085062A1, “NOVEL COMPOUNDS AS CK2 INHIBITORS” (Cambridge Enterprise Limited, priority 2022, published 2026):

Experiments:
CK2α = molecular target: T1, CK2α (Homo sapiens, UniProt P68400); experiment: Biochemical assay for inhibitors of CK2α kinase activity (ADP-Glo); details: 0.2 nM CK2α, 50 μM peptide substrate, 15 μM ATP, read-out: Assay 1: CK2α Enzyme IC50
T1 construct: CK2α (residues 2-329) was produced in Escherichia coli BL21 (DE3) for kinase activity screening; His6 (N, cleaved yes); made in house; host or cells: Escherichia coli BL21 (DE3)
T1 sequence (P68400 2-329): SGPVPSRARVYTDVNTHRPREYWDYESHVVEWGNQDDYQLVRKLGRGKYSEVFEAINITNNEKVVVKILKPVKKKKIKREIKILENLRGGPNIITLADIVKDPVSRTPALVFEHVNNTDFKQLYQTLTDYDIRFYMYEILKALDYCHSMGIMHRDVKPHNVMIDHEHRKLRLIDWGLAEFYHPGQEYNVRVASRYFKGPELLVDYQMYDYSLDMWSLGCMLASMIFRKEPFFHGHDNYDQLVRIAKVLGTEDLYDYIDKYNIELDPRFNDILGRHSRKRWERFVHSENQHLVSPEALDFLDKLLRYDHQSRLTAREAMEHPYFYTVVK

CLK2 = molecular target: T2, CLK2 (Homo sapiens, UniProt P49760); experiment: Biochemical assay for inhibitors of CLK2 kinase activity (ADP-Glo); details: 20 nM CLK2, 50 μM peptide substrate, 100 μM ATP, read-out: Assay 2: CLK2 Enzyme IC50
T2 construct: purchased Carna Biosciences 04-127

intracellular CK2α = molecular target: T3, intracellular CK2α (Homo sapiens, UniProt P19784); experiment: Cell-based NanoBRET assay for inhibitor binding to intracellular CK2α; details: HCT116 cells transiently transfected with CSNK2A2-NanoLuc fusion vector; Tracer K-5; 2 h; read-out: Assay 3: NanoBRET ™ assay for binding to intracellular CK2α
T3 construct: host or cells: HCT116 (ATCC CCL-247)
In short: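 Living cells expressing NanoLuc-CK2α fusion were given a fixed tracer concentration, and compounds competitively displaced the reversibly bound tracer. Donor (450 nm) and acceptor (610 or 630 nm) emissions were read; BRET ratio = (acceptor/donor)×1,000, giving apparent intracellular affinity.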

T2 sequence (P49760 whole entry): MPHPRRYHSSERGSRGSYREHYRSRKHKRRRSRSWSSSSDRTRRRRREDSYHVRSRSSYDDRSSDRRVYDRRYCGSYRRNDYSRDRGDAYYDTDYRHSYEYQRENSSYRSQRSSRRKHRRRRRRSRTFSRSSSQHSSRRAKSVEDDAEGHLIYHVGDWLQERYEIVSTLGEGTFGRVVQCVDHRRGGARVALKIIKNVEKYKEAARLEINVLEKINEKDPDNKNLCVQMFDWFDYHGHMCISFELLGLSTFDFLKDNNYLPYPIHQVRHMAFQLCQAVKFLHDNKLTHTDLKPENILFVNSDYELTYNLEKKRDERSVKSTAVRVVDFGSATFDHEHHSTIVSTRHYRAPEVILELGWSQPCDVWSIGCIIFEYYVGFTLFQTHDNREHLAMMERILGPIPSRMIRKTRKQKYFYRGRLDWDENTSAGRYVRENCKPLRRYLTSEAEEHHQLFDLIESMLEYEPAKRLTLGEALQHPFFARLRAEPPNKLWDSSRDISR
T3 sequence (P19784 whole entry, the tested form may be a part): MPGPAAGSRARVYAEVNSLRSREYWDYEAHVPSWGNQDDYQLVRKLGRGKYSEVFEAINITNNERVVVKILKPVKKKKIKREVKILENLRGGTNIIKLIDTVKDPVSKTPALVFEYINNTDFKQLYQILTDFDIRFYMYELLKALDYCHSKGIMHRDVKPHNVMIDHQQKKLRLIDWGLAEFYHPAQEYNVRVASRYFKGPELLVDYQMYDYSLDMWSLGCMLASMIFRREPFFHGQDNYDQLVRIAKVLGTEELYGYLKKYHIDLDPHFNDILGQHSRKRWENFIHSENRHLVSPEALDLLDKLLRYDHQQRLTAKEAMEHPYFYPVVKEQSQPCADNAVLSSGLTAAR

IC50 (CK2α) [nM]	IC50 (CLK2) [nM]	IC50 (intracellular CK2α) [nM]	Compound
6.96	132	449	N#Cc1cc(NCCCNC(=O)CCNCc2ccc(-c3ccccc3)c(Cl)c2)c2cn[nH]c2c1 [Example 10, 3-(((2-chloro-[1,1′-biphenyl]-4-yl)methyl)amino)-N-(3-((6-cyano-1H-indazol-4-yl)amino)propyl)propanamide]
8.18	152	299	N#CCc1cc(CNCCCCOC2CN(c3cc(-c4cnoc4)cc4[nH]ncc34)C2)cc(OC(F)(F)F)c1 [Example 146, 2-(3-(((4-((1-(6-(isoxazol-4-yl)-1H-indazol-4-yl)azetidin-3-yl)oxy)butyl)amino)methyl)-5-(trifluoromethoxy)phenyl)acetonitrile]
5.71	95.7	> 50000	O=C(CCNCc1ccc(C2CC2)c(CO)c1)NCCCNc1cc(-n2cnnc2)cc2[nH]ncc12 [Example 77, N-(3-((6-(4H-1,2,4-triazol-4-yl)-1H-indazol-4-yl)amino)propyl)-3-((4-cyclopropyl-3-(hydroxymethyl)benzyl)amino)propanamide]
6.53	807	402	O=C(CCNCc1ccc(OC(F)(F)F)c(Cl)c1)NCCCNc1cc(-c2ccncc2F)cc2[nH]ncc12 [Example 162, 3-((3-chloro-4-(trifluoromethoxy)benzyl)amino)-N-(3-((6-(3-fluoropyridin-4-yl)-1H-indazol-4-yl)amino)propyl)propanamide]
0.64	71	108	N#Cc1[nH]ncc1-c1cc(NCCCNC(=O)CCNCc2ccc(OC(F)(F)F)c(Cl)c2)c2cn[nH]c2c1 [Example 156, 3-((3-chloro-4-(trifluoromethoxy)benzyl)amino)-N-(3-((6-(5-cyano-1H-pyrazol-4-yl)-1H-indazol-4-yl)amino)propyl)propanamide]
2.65	237	13400	N#Cc1cc(CNCCC(=O)NCCCNc2cc(-n3cnnc3)cc3[nH]ncc23)ccc1OC(F)(F)F [Example 46, N-(3-((6-(4H-1,2,4-triazol-4-yl)-1H-indazol-4-yl)amino)propyl)-3-((3-cyano-4-(trifluoromethoxy)benzyl)amino)propanamide]
72.9	7320	3740	Cc1cnccc1-c1cc(NCCCNC(=O)CCNCc2ccc(OC(F)(F)F)c(Cl)c2)c2cn[nH]c2c1 [Example 165, 3-((3-chloro-4-(trifluoromethoxy)benzyl)amino)-N-(3-((6-(3-methylpyridin-4-yl)-1H-indazol-4-yl)amino)propyl)propanamide]
8.8	300	528	N#CCc1cc(CNCCCCOC2CN(c3cc(-n4cnnc4)cc4[nH]ncc34)C2)cc(OC(F)(F)F)c1 [Example 147, 2-(3-(((4-((1-(6-(4H-1,2,4-triazol-4-yl)-1H-indazol-4-yl)azetidin-3-yl)oxy)butyl)amino)methyl)-5-(trifluoromethoxy)phenyl)acetonitrile]
67.5	2710	8090	N#CCc1cc(F)cc(CNCCCCOC2CN(c3cc(-c4ccnnc4)cc4[nH]ncc34)C2)c1 [Example 113, 2-(3-fluoro-5-(((4-((1-(6-(pyridazin-4-yl)-1H-indazol-4-yl)azetidin-3-yl)oxy)butyl)amino)methyl)phenyl)acetonitrile]
46.6	688	2850	FC(F)(F)Oc1ccc(CNCCCOCCCOc2cc(-n3cnnc3)cc3[nH]ncc23)cc1Cl [Example 69, 3-(3-((6-(4H-1,2,4-triazol-4-yl)-1H-indazol-4-yl)oxy)propoxy)-N-(3-chloro-4-(trifluoromethoxy)benzyl)propan-1-amine]
7.88	350	1840	FC(F)(F)Oc1ccc(CNCCc2ncc(CCNc3cc(-n4cnnc4)cc4[nH]ncc34)o2)cc1Cl [Example 64, N-(2-(2-(2-((3-chloro-4-(trifluoromethoxy)benzyl)amino)ethyl)oxazol-5-yl)ethyl)-6-(4H-1,2,4-triazol-4-yl)-1H-indazol-4-amine]
21.5	1210	1940	OCCOc1cc(CNC2CC(COCCOc3cc(-c4cnnc(O)c4)cc4[nH]ncc34)C2)cc(OC(F)(F)F)c1 (stereo not drawn) [Example 199, 5-(4-(2-((3-((3-(2-hydroxyethoxy)-5-(trifluoromethoxy)benzyl)amino)cyclobutyl)methoxy)ethoxy)-1H-indazol-6-yl)pyridazin-3-ol]
33.1	124	3350	OCc1cc(Cl)cc(CNCCCCOC2CN(c3cc(-c4cnoc4)cc4[nH]ncc34)C2)c1 [Example 136, (3-chloro-5-(((4-((1-(6-(isoxazol-4-yl)-1H-indazol-4-yl)azetidin-3-yl)oxy)butyl)amino)methyl)phenyl)methanol]
256	1520	> 50000	O=C(CCOCCCNCc1ccc(OC(F)(F)F)c(Cl)c1)Nc1cc(-n2cnnc2)cc2[nH]ncc12 [Example 70, N-(6-(4H-1,2,4-triazol-4-yl)-1H-indazol-4-yl)-3-(3-((3-chloro-4-(trifluoromethoxy)benzyl)amino)propoxy)propanamide]
49.7	5820	> 50000	FC(F)(F)c1ccc2[nH]c(CNCCCCOC3CN(c4cc(-n5cnnc5)cc5[nH]nnc45)C3)cc2c1 [Example 152, 4-((1-(6-(4H-1,2,4-triazol-4-yl)-1H-benzo[d][1,2,3]triazol-4-yl)azetidin-3-yl)oxy)-N-((5-(trifluoromethyl)-1H-indol-2-yl)methyl)butan-1-amine]

Compound	IC50 (CK2α) [nM]	IC50 (CLK2) [nM]	IC50 (intracellular CK2α) [nM]
O=C(O)Cc1cc(NCCOCCCCNCc2cc(F)c(OC(F)(F)F)c(F)c2)c2cn[nH]c2c1 [Example 198, 2-(4-((2-(4-((3,5-difluoro-4-(trifluoromethoxy)benzyl)amino)butoxy)ethyl)amino)-1H-indazol-6-yl)acetic acid]	72.6	> 50000	> 3000
Cc1nncn1-c1cc(NCCOCCCCNCc2cc3cc(C(F)(F)F)ccc3[nH]2)c2cn[nH]c2c1 [Example 86, 6-(3-methyl-4H-1,2,4-triazol-4-yl)-N-(2-(4-(((5-(trifluoromethyl)-1H-indol-2-yl)methyl)amino)butoxy)ethyl)-1H-indazol-4-amine]	6.36	1670	1350
FC(F)(F)c1ccc2[nH]c(CNCCCCOCCNc3cc(-n4cnnc4)cc4[nH]nnc34)cc2c1 [Example 142, 6-(4H-1,2,4-triazol-4-yl)-N-(2-(4-(((5-(trifluoromethyl)-1H-indol-2-yl)methyl)amino)butoxy)ethyl)-1H-benzo[d][1,2,3]triazol-4-amine]	5.43	4790	3860
c1cc(-c2cc(N3CC(OCCCCNCc4cc5cc(OC6CCC6)ccc5[nH]4)C3)c3cn[nH]c3c2)cnn1 [Example 109, N-((5-cyclobutoxy-1H-indol-2-yl)methyl)-4-((1-(6-(pyridazin-4-yl)-1H-indazol-4-yl)azetidin-3-yl)oxy)butan-1-amine]	42.5	2920	2810
c1cc2[nH]c(CNCCCCOCCOc3cc(-n4cnnc4)cc4[nH]ncc34)cc2cc1OC1CCC1 [Example 118, 4-(2-((6-(4H-1,2,4-triazol-4-yl)-1H-indazol-4-yl)oxy)ethoxy)-N-((5-cyclobutoxy-1H-indol-2-yl)methyl)butan-1-amine]	0.86	1100	204
FC(F)(F)c1ccc2[nH]c(CNCCCCOCCNc3cc(-c4ccnnc4)cc4[nH]ncc34)cc2c1 [Example 93, 6-(pyridazin-4-yl)-N-(2-(4-(((5-(trifluoromethyl)-1H-indol-2-yl)methyl)amino)butoxy)ethyl)-1H-indazol-4-amine]	0.77	569	180
O=C(COCCCCNCc1ccc(OC(F)(F)F)c(Cl)c1)Nc1cc(-n2cnnc2)cc2[nH]ncc12 [Example 48, N-(6-(4H-1,2,4-triazol-4-yl)-1H-indazol-4-yl)-2-(4-((3-chloro-4-(trifluoromethoxy)benzyl)amino)butoxy)acetamide]	20.3	993	2750
Fc1cc(CNCCCCOCCNc2cc(-c3ccncc3)c(F)c3[nH]ncc23)cc(F)c1OC(F)(F)F [Example 176, N-(2-(4-((3,5-difluoro-4-(trifluoromethoxy)benzyl)amino)butoxy)ethyl)-7-fluoro-6-(pyridin-4-yl)-1H-indazol-4-amine]	5.99	332	217
CNc1n[nH]c2cc(-n3cnnc3)cc(NCCOCCCCNCc3cc(F)c(OC(F)(F)F)c(F)c3)c12 [Example 190, N4-(2-(4-((3,5-difluoro-4-(trifluoromethoxy)benzyl)amino)butoxy)ethyl)-N3-methyl-6-(4H-1,2,4-triazol-4-yl)-1H-indazole-3,4-diamine]	1.45	1100	74
